Source: the SangsterLogP compilation

Assay: method code SF-AS, from DOI: 10.1021/jm00252a008, PMID: 4598022

Compound | logP
O=C1NC(=Nc2ccccc2)SC1=Cc1ccc([N+](=O)[O-])o1 | 1.41
O=C1NC(=S)SC1=CC=Cc1ccc([N+](=O)[O-])o1 | 0.93
CC(C)N=C1SC(=Cc2ccc([N+](=O)[O-])o2)C(=O)N1C(C)C | 1.22
CNc1nc(=O)cc(-c2ccc([N+](=O)[O-])o2)s1 | 0.86
CC(=O)Nc1nc(=O)cc(-c2ccc([N+](=O)[O-])o2)s1 | 1.01
O=C1NC(=S)SC1=Cc1ccc([N+](=O)[O-])o1 | 0.74
NC1=NC(=O)C(=Cc2ccc([N+](=O)[O-])o2)S1 (stereo in doubt) | 1.09
CC(=O)N(C)C1=NC(=O)/C(=C\C=C/c2ccc([N+](=O)[O-])o2)S1 | 1.21
CCC/N=C1\NC(=O)/C(=C/c2ccc([N+](=O)[O-])o2)S1 | 1.24
CC(=O)NC1=NC(=O)/C(=C\C=Cc2ccc([N+](=O)[O-])o2)S1 (stereo in doubt) | 0.95
CCN(CC)C1=NC(=O)/C(=C/c2ccc([N+](=O)[O-])o2)S1 | 1.22
O=c1cc(-c2ccc([N+](=O)[O-])o2)sc(=O)[nH]1 | 0.55
CSC1=NC(=O)C(=Cc2ccc([N+](=O)[O-])o2)S1 (stereo in doubt) | 1.41
C=CCN=C1SC(=Cc2ccc([N+](=O)[O-])o2)C(=O)N1CC=C | 1.46
C/N=C1/NC(=O)/C(=C/C=C/c2ccc([N+](=O)[O-])o2)S1 | 1.35
CC/N=C1\NC(=O)/C(=C/c2ccc([N+](=O)[O-])o2)S1 | 1.16
C/N=C1\NC(=O)/C(=C/c2ccc([N+](=O)[O-])o2)S1 | 1.16
CC(=O)NC1=NC(=O)/C(=C/c2ccc([N+](=O)[O-])o2)S1 | 1.03
CN1C(=O)SC(=CC=Cc2ccc([N+](=O)[O-])o2)C1=O | 1.4
CC(=O)N(C)C1=NC(=O)/C(=C/c2ccc([N+](=O)[O-])o2)S1 | 1.05
CN(C)C1=NC(=O)/C(=C/c2ccc([N+](=O)[O-])o2)S1 | 1.16
O=C1NC(=O)/C(=C\c2ccc([N+](=O)[O-])o2)S1 | 0.63
CC(C)/N=C1\NC(=O)/C(=C/c2ccc([N+](=O)[O-])o2)S1 | 1.29
CN(C)c1nc(=O)cc(-c2ccc([N+](=O)[O-])o2)s1 | 0.55

The next lines start with the values.

logP | Compound
1.44 | CN1C(=N)S/C(=C/c2ccc([N+](=O)[O-])o2)C1=O
1.32 | CCCN=C1SC(=Cc2ccc([N+](=O)[O-])o2)C(=O)N1CCC
1.42 | C/N=C1\SC(=Cc2ccc([N+](=O)[O-])o2)C(=O)N1C
1.21 | CCN1C(=O)C(=Cc2ccc([N+](=O)[O-])o2)S/C1=N\C(C)=O
1.78 | CN1C(=O)S/C(=C\c2ccc([N+](=O)[O-])o2)C1=O
1.21 | CC(=O)N=C1S/C(=C\c2ccc([N+](=O)[O-])o2)C(=O)N1C (stereo in doubt)
1.17 | CCCN1C(=O)/C(=C/c2ccc([N+](=O)[O-])o2)S/C1=N\C(C)=O
1.44 | CCN1C(=N)SC(=Cc2ccc([N+](=O)[O-])o2)C1=O
2.22 | C=CCN1C(=O)S/C(=C\c2ccc([N+](=O)[O-])o2)C1=O
2.29 | CCN1C(=O)S/C(=C/c2ccc([N+](=O)[O-])o2)C1=O
1.06 | CN1C(=O)/C(=C\c2ccc([N+](=O)[O-])o2)SC1=S
2.42 | CC(C)N1C(=O)S/C(=C\c2ccc([N+](=O)[O-])o2)C1=O
2.4 | CCCN1C(=O)S/C(=C\c2ccc([N+](=O)[O-])o2)C1=O
